Test results from paper PMC9075979 (Molecular Therapy, 2022).
Several values for one entry are separate records, joined by “and”; a condition that tells them apart may be missing. Equal values may be shown once. Where a name gives a salt, the structure may show the parent alone. Read-outs that look alike come from different tables or passages of the source.

Key:
COVID-19 = conditions: cited from earlier work
wild-type VSV-GFP = format: cell-based
[1] = in vivo, 0.016 mg/kg; cited from earlier work
[2] = tested on: SARS-CoV-2 (FR-4286 strain); design: species or system K18-hACE2 mice; conditions: mouse, in vivo
SARS-CoV-2 = format: cell-based
recombinant sACE2 = recombinant sACE2 (Homo sapiens, UniProt Q9BYF1); format: binding
Sequence of recombinant sACE2 (Q9BYF1 19-607): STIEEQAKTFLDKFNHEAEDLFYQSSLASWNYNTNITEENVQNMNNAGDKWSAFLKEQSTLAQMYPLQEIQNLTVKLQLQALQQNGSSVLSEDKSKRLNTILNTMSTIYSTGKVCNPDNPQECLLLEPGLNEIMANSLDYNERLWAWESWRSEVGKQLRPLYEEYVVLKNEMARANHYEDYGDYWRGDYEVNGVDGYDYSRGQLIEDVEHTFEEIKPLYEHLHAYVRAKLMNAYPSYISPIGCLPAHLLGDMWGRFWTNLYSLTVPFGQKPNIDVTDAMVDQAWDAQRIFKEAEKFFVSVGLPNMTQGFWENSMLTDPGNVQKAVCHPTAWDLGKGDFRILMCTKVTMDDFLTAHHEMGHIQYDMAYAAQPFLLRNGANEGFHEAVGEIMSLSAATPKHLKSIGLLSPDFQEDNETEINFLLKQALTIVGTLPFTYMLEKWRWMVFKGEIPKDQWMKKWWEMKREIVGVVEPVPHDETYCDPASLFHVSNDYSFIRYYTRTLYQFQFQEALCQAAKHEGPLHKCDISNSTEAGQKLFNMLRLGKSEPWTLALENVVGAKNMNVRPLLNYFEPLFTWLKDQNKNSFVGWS

[3] = target: RBD of SARS-CoV (2002)-ACE2 interaction (Homo sapiens, UniProt Q9BYF1); experiment: biochemical; format: binding
Sequence of RBD of SARS-CoV (2002)-ACE2 interaction (Q9BYF1 18-740 limits assumed): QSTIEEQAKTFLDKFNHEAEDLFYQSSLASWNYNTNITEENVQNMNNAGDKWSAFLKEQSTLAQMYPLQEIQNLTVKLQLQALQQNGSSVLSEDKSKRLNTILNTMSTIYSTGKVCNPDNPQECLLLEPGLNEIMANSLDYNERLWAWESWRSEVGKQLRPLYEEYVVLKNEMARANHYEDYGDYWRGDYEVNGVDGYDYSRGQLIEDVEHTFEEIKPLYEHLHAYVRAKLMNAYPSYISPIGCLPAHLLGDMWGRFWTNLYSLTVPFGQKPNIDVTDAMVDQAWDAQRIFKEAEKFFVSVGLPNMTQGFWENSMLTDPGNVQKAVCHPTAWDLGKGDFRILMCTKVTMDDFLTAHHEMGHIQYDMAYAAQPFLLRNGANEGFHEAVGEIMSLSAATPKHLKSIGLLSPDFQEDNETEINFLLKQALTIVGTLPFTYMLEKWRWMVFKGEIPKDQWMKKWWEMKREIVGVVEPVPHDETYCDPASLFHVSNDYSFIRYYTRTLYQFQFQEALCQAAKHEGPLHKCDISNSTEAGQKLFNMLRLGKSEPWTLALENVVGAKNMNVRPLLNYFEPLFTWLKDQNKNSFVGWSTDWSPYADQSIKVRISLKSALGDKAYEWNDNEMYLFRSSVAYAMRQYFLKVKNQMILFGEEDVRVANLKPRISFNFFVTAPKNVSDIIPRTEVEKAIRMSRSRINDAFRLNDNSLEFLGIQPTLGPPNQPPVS

[4] = tested on: SARS-CoV-2-Spike pseudotyped vesicular stomatitis virus (VSV-GFP-Spike); format: cell-based
[5] = target: SARS-CoV-2 spike RBD-ACE2 interaction (Homo sapiens, UniProt Q9BYF1); experiment: biochemical; format: binding; conditions: for IC50: IC50 Biosensor
Sequence of SARS-CoV-2 spike RBD-ACE2 interaction (Q9BYF1 18-740): as the sequence (Q9BYF1 18-740 limits assumed) above

[6] = tested on: SARS-CoV-2 (strain 291.3 FR-4286); format: cell-based
[7] = tested on: SARS-CoV-2 VOCs (Alpha, Beta, Delta, cluster5); format: cell-based
[8] = mouse, in vivo
[9] = tested on: fusion between spike and ACE2 (HEK293T cells); format: cell-based
Recombinant ACE2 = Recombinant ACE2 (Homo sapiens, UniProt Q9BYF1)
Sequence of Recombinant ACE2 (Q9BYF1 18-805): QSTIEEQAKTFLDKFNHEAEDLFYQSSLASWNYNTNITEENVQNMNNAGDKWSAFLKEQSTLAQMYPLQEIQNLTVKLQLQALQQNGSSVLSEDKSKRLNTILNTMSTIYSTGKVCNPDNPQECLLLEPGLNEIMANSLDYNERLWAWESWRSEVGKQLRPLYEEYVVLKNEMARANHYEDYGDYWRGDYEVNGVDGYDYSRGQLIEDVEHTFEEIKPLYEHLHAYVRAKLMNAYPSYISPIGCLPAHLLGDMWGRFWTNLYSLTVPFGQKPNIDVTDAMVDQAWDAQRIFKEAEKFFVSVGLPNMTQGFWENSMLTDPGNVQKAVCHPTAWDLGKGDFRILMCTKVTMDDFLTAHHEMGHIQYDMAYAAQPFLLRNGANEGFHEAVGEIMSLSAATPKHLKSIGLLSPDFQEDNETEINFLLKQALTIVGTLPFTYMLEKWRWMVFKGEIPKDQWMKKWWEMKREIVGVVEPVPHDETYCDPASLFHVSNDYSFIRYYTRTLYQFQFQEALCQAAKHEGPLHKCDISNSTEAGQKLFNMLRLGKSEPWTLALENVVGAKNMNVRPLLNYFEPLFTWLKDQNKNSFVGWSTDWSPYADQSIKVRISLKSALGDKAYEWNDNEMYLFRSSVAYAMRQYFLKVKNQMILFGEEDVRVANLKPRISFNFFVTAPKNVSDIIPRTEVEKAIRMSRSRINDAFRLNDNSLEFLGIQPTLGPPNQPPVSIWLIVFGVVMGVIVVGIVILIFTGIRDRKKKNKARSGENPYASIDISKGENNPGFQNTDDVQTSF

[10] = target: S1 domain of SARS-CoV-2 spike-ACE2 interaction (Homo sapiens, UniProt Q9BYF1); format: binding
Sequence of S1 domain of SARS-CoV-2 spike-ACE2 interaction (Q9BYF1 18-740): as the sequence (Q9BYF1 18-740 limits assumed) above

VSV-Spike (strain 2) = conditions: mouse, in vivo
[11] = rabbit, in vivo; cited from earlier work
wild-type nanoluciferase = wild-type nanoluciferase (Oplophorus gracilirostris, UniProt Q9GV45, A31E/A60N/A81I/F95D/I117V/K70R/L54V/L99Q/M102K/N193R/P142E/Q151K/Q38R/Q45L/V71I/Y165I); format: biochemical; conditions: 4 μM
LATS biosensor = format: binding; conditions: 4 μM
[12] = method B, newly purchased drugs, 2–25 μM, Figure 2D
[13] = Prestwick library screen, 4 μM, compound added to pre-formed RBD:ACE2 complex
[14] = Prestwick library screen, 4 μM, compound added to LgBiT-RBD, then SmBiT-ACE2
[15] = read-out: inhibition of bioreporter signal, SARS-CoV RBD/ACE2, both methods

CC(C)C(=O)OC[C@H]1O[C@@H](n2ccc(NO)nc2=O)[C@H](O)[C@@H]1O [Molnupiravir]
reduction of hospitalization or death (COVID-19; oral treatment, clinical): 50%

c1ccc(-c2ccc(C(c3ccccc3)n3ccnc3)cc2)cc1 (stereo not drawn) [bifonazole]
WT VSV infection (entry) (wild-type VSV-GFP): largely unaffected
WT VSV plaque size (wild-type VSV-GFP): no effect on WT VSV
half-life (t1/2), first phase of biphasic elimination [1]: 7 h
half-life (t1/2), second phase of biphasic elimination [1]: 42 h
survival [2]: 8 of 11
weight after infection [2]: lost less weight
effect on viability (VeroE6-hTMPRSS2 cells): no effect on viability at the antiviral dose tested
viral mRNA and infectious particles (TCID50) (SARS-CoV-2): reduction in viral mRNA as well as infectious particles
effect on sACE2 unfolding by urea (recombinant sACE2): stabilizes sACE2
inhibition at 4 µM ([3]; read-out: inhibition of luminescence, SARS-CoV RBD/ACE2, method A): 45%
inhibition at 4 µM ([3]; read-out: inhibition of luminescence, SARS-CoV RBD/ACE2, method B): 22%
VSV-Spike plaque size [4]: reduction in VSV-Spike plaque size
concentration giving spike-specific reduction in viral growth [4]: ~35 µM
immunofluorescent VSV staining, spike-pseudotyped VSV strains [4]: complete abrogation of VSV staining
viral entry of pseudotyped VSV-Spike [4]: significant impairment in viral entry
bioreporter complementation, pre-treatment of ACE2 followed by RBD [5]: complete abrogation of bioreporter complementation and luminescence
concentration inhibiting WT ACE2 binding to the RBD to similar levels as αRBD [5]: 3.29 µM
reduction in bioreporter signal, method A [5]: −46%
reduction in bioreporter signal, method B [5]: −51%
IC50 [5]: 1.3 µM and 1.6 µM
inhibition at 4 µM ([5]; read-out: peak inhibition, pre-treatment of RBD followed by ACE2): 50%
inhibition at 3.29 µM ([5]; read-out: signal inhibition): 80%
spike protein levels (immunoblotting) [6]: dramatic reduction in spike protein levels
viral burden by TCID50 assay [6]: reduced
viral mRNA levels (qPCR) [6]: significant reduction in viral mRNA levels
viral RNA levels of VOCs [7]: significant reduction in output of the VOCs
concentration up to which no overt toxicity (VeroE6 and VeroAT cells; African green monkey): up to 100 μM
tolerability [8]: well tolerated
fusion of ACE2- and ACE2/TMPRSS2-expressing cells with spike-expressing HEK293T cells [9]: dose-dependent reduction in fusion
effect on cell viability (A549-hACE2 cells): no effect on cell viability at the dose tested
inhibition of ACE2 enzymatic activity (Recombinant ACE2): does not involve inhibition of ACE2 enzymatic activity
reduction in binding, ACE2 and S1 domain of spike [10]: ~30%
reduction in pY705-Stat3 in the lungs (VSV-Spike (strain 2)): ~50%
reduction of lethality (VSV-Spike (strain 2)): 40%
survival (VSV-Spike (strain 2)): 2 of 5
survival of challenged mice (VSV-Spike (strain 2)): 40%
viral load in lungs by qRT-PCR (VSV-Spike (strain 2)): significant reduction in viral load
oral doses that could result in embryotoxicity [11]: > 30 mg/kg

COc1cc(N)c(Cl)cc1C(=O)NC1CCN(CCCOc2ccc(F)cc2)CC1OC (stereo not drawn) [cisapride]
reduction in luminescence with nanoluciferase on its own (wild-type nanoluciferase): not nanoluciferase on its own
effect on VSV infection [4]: did not affect VSV infection at all concentrations tested
reduction in luminescence with the LATS biosensor (LATS biosensor): −13%
IC50 [5, 12]: 16.5 µM
toxic at doses of more than (VeroE6 and VeroAT cells; VeroE6 / VeroAT, 48 h): more than 20 μM

Clc1ccccc1C(c1ccccc1)(c1ccccc1)n1ccnc1 [clotrimazole]
reduction in bioreporter signal, method A [5, 13]: −21%

Clc1ccc(COC(Cn2ccnc2)c2ccc(Cl)cc2Cl)cc1 (stereo not drawn) [econazole nitrate, econazole nitrate salt]
reduction in bioreporter signal, method B [5, 14]: −23%
reduction in bioreporter signal, method A [5, 13]: −36%

C#C[C@]1(O)CC[C@H]2[C@@H]3CCc4cc(O)ccc4[C@H]3CC[C@@]21C [ethynylestradiol, 17a-ethynylestradiol]
inhibition at 4 µM [3, 15]: 3 to 6%
IC50 [5, 12]: 2.6 µM

CCC(C)n1ncn(-c2ccc(N3CCN(c4ccc(OCC5COC(Cn6cncn6)(c6ccc(Cl)cc6Cl)O5)cc4)CC3)cc2)c1=O (stereo not drawn) [itraconazole]
efficacy in hospitalized individuals (COVID-19; administered orally, clinical study): no efficacy

CC(=O)N1CCN(c2ccc(OCC3COC(Cn4ccnc4)(c4ccc(Cl)cc4Cl)O3)cc2)CC1 (stereo not drawn) [ketoconazole]
concentration giving spike-specific reduction in viral growth [4]: ~80 µM
IC50 ([5]; method B, imidazole comparison, Figure 3B): 14.5 µM
reduction in bioreporter signal, method A [5, 13]: −29%

COC(=O)C1=C(C)NC(C)=C(C(=O)OCCN(C)Cc2ccccc2)C1c1cccc([N+](=O)[O-])c1 (stereo not drawn) [nicardipine, nicardipine HCl]
inhibition at 4 µM [3, 15]: 3 to 6%
IC50 [5, 12]: 1.9 µM

CCOC1O[C@H]([C@@H](COCc2ccccc2)OCc2ccccc2)[C@H](OCc2ccccc2)[C@H]1O (stereo partly drawn) [tribenoside]
reduction in bioreporter signal, method B [5, 14]: −9%
reduction in bioreporter signal, method A [5, 13]: −21%
